Measured values: EP1285920A1, “C10 Ester sustituted taxanes as antitumor agents” (Florida State University Research Foundation, Inc., priority 2001, dated 2003)

Test system: HCT116
Assay: In Vitro cytotoxicity measured by the cell colony formation assay
Type: cell-based, human
Conditions: HCT116 colony formation; 72 h with drug, colonies counted after 7 days; ID50 = concentration producing 50% inhibition of colony formation; read-out: IN VITRO ID 50 HCT116
Procedure: Four hundred cells (HCT116) were plated in 60 mm Petri dishes containing 2.7 mL of medium (modified McCoy's 5a medium containing 10% fetal bovine serum and 100 units/mL penicillin and […] streptomycin). The cells were incubated in a CO2 incubator at 37 °C for 5 h for attachment to the bottom of Petri dishes. The compounds identified in Example 2 were made up fresh in medium at ten times the final concentration, and then 0.3 mL of this stock solution was added to the 2.7 mL of medium in the dish. The cells were then incubated with drugs for 72 h at 37 °C. At the end of incubation the drug-containing media were decanted, the dishes were rinsed with 4 mL of Hank's Balance Salt Solution (HBSS), 5 mL of fresh medium was added, and the dishes were returned to the incubator for colony formation. The cell colonies were counted using a colony counter after incubation for 7 days.

Row | Compound | IC50
1 | CC=CC(=O)OC1C(=O)C2(C)C(O)CC3OCC3(OC(C)=O)C2C(OC(=O)c2ccccc2)C2(O)CC(OC(=O)C(O)C(C=C(C)C)NC(=O)OC(C)(C)C)C(C)=C1C2(C)C (centres unmarked) [Compound 2332] | < 1 nM
2 | CC=CC(=O)OC1C(=O)C2(C)C(O)CC3OCC3(OC(C)=O)C2C(OC(=O)c2ccccc2)C2(O)CC(OC(=O)C(O)C(NC(=O)OC(C)(C)C)c3ccccn3)C(C)=C1C2(C)C (centres unmarked) [Compound 2348] | < 1 nM
3 | CC=CC(=O)OC1C(=O)C2(C)C(O)CC3OCC3(OC(C)=O)C2C(OC(=O)c2ccccc2)C2(O)CC(OC(=O)C(O)C(NC(=O)OC(C)(C)C)c3cccnc3)C(C)=C1C2(C)C (centres unmarked) [Compound 2353] | < 10 nM
4 | CC=CC(=O)OC1C(=O)C2(C)C(O)CC3OCC3(OC(C)=O)C2C(OC(=O)c2ccccc2)C2(O)CC(OC(=O)C(O)C(NC(=O)OC(C)(C)C)c3ccncc3)C(C)=C1C2(C)C (centres unmarked) [Compound 2366] | < 1 nM
5 | CC=CC(=O)OC1C(=O)C2(C)C(O)CC3OCC3(OC(C)=O)C2C(OC(=O)c2ccccc2)C2(O)CC(OC(=O)C(O)C(NC(=O)OC(C)(C)C)c3ccco3)C(C)=C1C2(C)C (centres unmarked) [Compound 2379] | < 1 nM
6 | CC=CC(=O)OC1C(=O)C2(C)C(O)CC3OCC3(OC(C)=O)C2C(OC(=O)c2ccccc2)C2(O)CC(OC(=O)C(O)C(NC(=O)OC(C)(C)C)c3ccoc3)C(C)=C1C2(C)C (centres unmarked) [Compound 2380] | < 1 nM
7 | CC=CC(=O)OC1C(=O)C2(C)C(O)CC3OCC3(OC(C)=O)C2C(OC(=O)c2ccccc2)C2(O)CC(OC(=O)C(O)C(NC(=O)OC(C)(C)C)C(C)C)C(C)=C1C2(C)C (centres unmarked) [Compound 2413] | < 10 nM
8 | CC=CC(=O)OC1C(=O)C2(C)C(O)CC3OCC3(OC(C)=O)C2C(OC(=O)c2ccccc2)C2(O)CC(OC(=O)C(O)C(NC(=O)OC(C)(C)C)C3CCC3)C(C)=C1C2(C)C (centres unmarked) [Compound 2424] | < 10 nM
9 | CC=CC(=O)OC1C(=O)C2(C)C(O)CC3OCC3(OC(C)=O)C2C(OC(=O)c2ccccc2)C2(O)CC(OC(=O)C(O)C(NC(=O)OC(C)(C)C)c3ccc([N+](=O)[O-])cc3)C(C)=C1C2(C)C (centres unmarked) [Compound 2439] | < 10 nM

Same assay, conditions: Homo sapiens, HCT-116; read-out: IN VITRO ID 50 HCT116

Row | Compound | IC50
10 | CC(=O)OC12COC1CC(O)C1(C)C(=O)C(OC(=O)C(C)C)C3=C(C)C(OC(=O)C(O)C(NC(=O)OC(C)(C)C)c4ccncc4)CC(O)(C(OC(=O)c4ccccc4)C21)C3(C)C (centres unmarked) [Compound 2255] | < 1 nM
11 | CC(=O)OC12COC1CC(O)C1(C)C(=O)C(OC(=O)C(C)C)C3=C(C)C(OC(=O)C(O)C(NC(=O)OC(C)(C)C)c4ccco4)CC(O)(C(OC(=O)c4ccccc4)C21)C3(C)C (centres unmarked) [Compound 2269] | < 1 nM
12 | CC(=O)OC12COC1CC(O)C1(C)C(=O)C(OC(=O)C(C)C)C3=C(C)C(OC(=O)C(O)C(NC(=O)OC(C)(C)C)c4ccoc4)CC(O)(C(OC(=O)c4ccccc4)C21)C3(C)C (centres unmarked) [Compound 2273] | < 1 nM
13 | CC(=O)OC12COC1CC(O)C1(C)C(=O)C(OC(=O)C(C)C)C3=C(C)C(OC(=O)C(O)C(NC(=O)OC(C)(C)C)c4cccs4)CC(O)(C(OC(=O)c4ccccc4)C21)C3(C)C (centres unmarked) [Compound 2287] | < 1 nM
14 | CC(=O)OC12COC1CC(O)C1(C)C(=O)C(OC(=O)C(C)C)C3=C(C)C(OC(=O)C(O)C(NC(=O)OC(C)(C)C)c4ccsc4)CC(O)(C(OC(=O)c4ccccc4)C21)C3(C)C (centres unmarked) [Compound 2291] | < 1 nM
15 | CC(=O)OC12COC1CC(O)C1(C)C(=O)C(OC(=O)C(C)C)C3=C(C)C(OC(=O)C(O)C(NC(=O)OC(C)(C)C)C(C)C)CC(O)(C(OC(=O)c4ccccc4)C21)C3(C)C (centres unmarked) [Compound 2306] | < 10 nM
16 | CC(=O)OC12COC1CC(O)C1(C)C(=O)C(OC(=O)C(C)C)C3=C(C)C(OC(=O)C(O)C(NC(=O)OC(C)(C)C)C4CCC4)CC(O)(C(OC(=O)c4ccccc4)C21)C3(C)C (centres unmarked) [Compound 2319] | < 10 nM
17 | CC(=O)OC12COC1CC(O)C1(C)C(=O)C(OC(=O)C(C)C)C3=C(C)C(OC(=O)C(O)C(NC(=O)OC(C)(C)C)c4ccc([N+](=O)[O-])cc4)CC(O)(C(OC(=O)c4ccccc4)C21)C3(C)C (centres unmarked) [Compound 2320] | < 1 nM
18 | CC(=O)O[C@@]12CO[C@@H]1C[C@H](O)[C@@]1(C)C(=O)[C@H](OC(=O)C=C(C)C)C3=C(C)[C@@H](OC(=O)[C@H](O)[C@H](C=C(C)C)NC(=O)OC(C)(C)C)C[C@@](O)([C@@H](OC(=O)c4ccccc4)[C@H]21)C3(C)C [Compound 2455] | < 10 nM
19 | CC(=O)O[C@@]12CO[C@@H]1C[C@H](O)[C@@]1(C)C(=O)[C@H](OC(=O)C=C(C)C)C3=C(C)[C@@H](OC(=O)[C@H](O)[C@@H](NC(=O)OC(C)(C)C)c4ccccn4)C[C@@](O)([C@@H](OC(=O)c4ccccc4)[C@H]21)C3(C)C [Compound 2464] | < 1 nM
20 | CC(=O)O[C@@]12CO[C@@H]1C[C@H](O)[C@@]1(C)C(=O)[C@H](OC(=O)C=C(C)C)C3=C(C)[C@@H](OC(=O)[C@H](O)[C@@H](NC(=O)OC(C)(C)C)c4ccncc4)C[C@@](O)([C@@H](OC(=O)c4ccccc4)[C@H]21)C3(C)C [Compound 2472] | < 1 nM
21 | CC(=O)O[C@@]12CO[C@@H]1C[C@H](O)[C@@]1(C)C(=O)[C@H](OC(=O)C=C(C)C)C3=C(C)[C@@H](OC(=O)[C@H](O)[C@@H](NC(=O)OC(C)(C)C)c4ccco4)C[C@@](O)([C@@H](OC(=O)c4ccccc4)[C@H]21)C3(C)C [Compound 2488] | < 1 nM
22 | CC(=O)O[C@@]12CO[C@@H]1C[C@H](O)[C@@]1(C)C(=O)[C@H](OC(=O)C=C(C)C)C3=C(C)[C@@H](OC(=O)[C@H](O)[C@@H](NC(=O)OC(C)(C)C)c4ccoc4)C[C@@](O)([C@@H](OC(=O)c4ccccc4)[C@H]21)C3(C)C [Compound 2499] | < 1 nM
23 | CC(=O)O[C@@]12CO[C@@H]1C[C@H](O)[C@@]1(C)C(=O)[C@H](OC(=O)C=C(C)C)C3=C(C)[C@@H](OC(=O)[C@H](O)[C@@H](NC(=O)OC(C)(C)C)c4cccs4)C[C@@](O)([C@@H](OC(=O)c4ccccc4)[C@H]21)C3(C)C [Compound 2503] | < 1 nM
24 | CC(=O)O[C@@]12CO[C@@H]1C[C@H](O)[C@@]1(C)C(=O)[C@H](OC(=O)C=C(C)C)C3=C(C)[C@@H](OC(=O)[C@H](O)[C@@H](NC(=O)OC(C)(C)C)c4ccsc4)C[C@@](O)([C@@H](OC(=O)c4ccccc4)[C@H]21)C3(C)C [Compound 2511] | < 1 nM
25 | CC(=O)O[C@@]12CO[C@@H]1C[C@H](O)[C@@]1(C)C(=O)[C@H](OC(=O)C=C(C)C)C3=C(C)[C@@H](OC(=O)[C@H](O)[C@@H](NC(=O)OC(C)(C)C)c4ccccc4)C[C@@](O)([C@@H](OC(=O)c4ccccc4)[C@H]21)C3(C)C [Compound 2520] | < 10 nM
26 | CC(=O)O[C@@]12CO[C@@H]1C[C@H](O)[C@@]1(C)C(=O)[C@H](OC(=O)C3CC3)C3=C(C)[C@@H](OC(=O)[C@H](O)[C@@H](NC(=O)OC(C)(C)C)c4ccoc4)C[C@@](O)([C@@H](OC(=O)c4ccccc4)[C@H]21)C3(C)C [Compound 2781] | < 1 nM
27 | CC(=O)O[C@@]12CO[C@@H]1C[C@H](O)[C@@]1(C)C(=O)[C@H](OC(=O)C3CC3)C3=C(C)[C@@H](OC(=O)[C@H](O)[C@@H](NC(=O)OC(C)(C)C)c4ccsc4)C[C@@](O)([C@@H](OC(=O)c4ccccc4)[C@H]21)C3(C)C [Compound 2794] | < 1 nM
28 | CC(=O)O[C@@]12CO[C@@H]1C[C@H](O)[C@@]1(C)C(=O)[C@H](OC(=O)C3CC3)C3=C(C)[C@@H](OC(=O)[C@H](O)[C@@H](NC(=O)OC(C)(C)C)c4ccccn4)C[C@@](O)([C@@H](OC(=O)c4ccccc4)[C@H]21)C3(C)C [Compound 2802] | < 1 nM
29 | CC(=O)O[C@@]12CO[C@@H]1C[C@H](O)[C@@]1(C)C(=O)[C@H](OC(=O)C3CC3)C3=C(C)[C@@H](OC(=O)[C@H](O)[C@@H](NC(=O)OC(C)(C)C)c4ccncc4)C[C@@](O)([C@@H](OC(=O)c4ccccc4)[C@H]21)C3(C)C [Compound 2813] | < 1 nM
30 | CC(=O)O[C@@]12CO[C@@H]1C[C@H](O)[C@@]1(C)C(=O)[C@H](OC(=O)C3CC3)C3=C(C)[C@@H](OC(=O)[C@H](O)[C@@H](NC(=O)c4ccccc4)c4ccoc4)C[C@@](O)([C@@H](OC(=O)c4ccccc4)[C@H]21)C3(C)C [Compound 2826] | < 1 nM
31 | CC(=O)O[C@@]12CO[C@@H]1C[C@H](O)[C@@]1(C)C(=O)[C@H](OC(=O)C3CC3)C3=C(C)[C@@H](OC(=O)[C@H](O)[C@@H](NC(=O)c4ccccc4)c4ccsc4)C[C@@](O)([C@@H](OC(=O)c4ccccc4)[C@H]21)C3(C)C [Compound 2838] | < 1 nM
32 | CC(=O)O[C@@]12CO[C@@H]1C[C@H](O)[C@@]1(C)C(=O)[C@H](OC(=O)C3CC3)C3=C(C)[C@@H](OC(=O)[C@H](O)[C@@H](NC(=O)c4ccccc4)c4ccccn4)C[C@@](O)([C@@H](OC(=O)c4ccccc4)[C@H]21)C3(C)C [Compound 2844] | < 10 nM
33 | CC(=O)O[C@@]12CO[C@@H]1C[C@H](O)[C@@]1(C)C(=O)[C@H](OC(=O)C3CC3)C3=C(C)[C@@H](OC(=O)[C@H](O)[C@@H](NC(=O)c4ccccc4)c4ccncc4)C[C@@](O)([C@@H](OC(=O)c4ccccc4)[C@H]21)C3(C)C [Compound 2855] | < 1 nM
34 | CC(=O)O[C@@]12CO[C@@H]1C[C@H](O)[C@@]1(C)C(=O)[C@H](OC(=O)C3CC3)C3=C(C)[C@@H](OC(=O)[C@H](O)[C@@H](NC(=O)c4ccccc4)c4ccc([N+](=O)[O-])cc4)C[C@@](O)([C@@H](OC(=O)c4ccccc4)[C@H]21)C3(C)C [Compound 2869] | < 10 nM
35 | CCC(=O)O[C@H]1C(=O)[C@@]2(C)[C@H]([C@H](OC(=O)c3ccccc3)[C@]3(O)C[C@H](OC(=O)[C@H](O)[C@@H](NC(=O)c4ccco4)c4cccs4)C(C)=C1C3(C)C)[C@]1(OC(C)=O)CO[C@@H]1C[C@@H]2O [Compound 3053] | < 1 nM
